Laboratory results: ChEMBL document CHEMBL3885861, “Open TG-GATES”

Species: Rattus norvegicus
Experiment: Open TG-GATES - Regimen: Daily Repeat
Format: toxicity, organism-based, Sprague-Dawley
Parameters: regimen Daily Repeat, gender Male, age 6 weeks
Conditions: in vivo, po, route gavage; for APTT / Bas / Eos / Fbg / Hb / Ht / Lym / MCH / MCHC / MCV / Mono / Neu / PT / Plat / RBC / Ret / WBC: tissue Blood; for KIDNEY_L / KIDNEY_R / KIDNEY_TOTAL: tissue Kidney; for LIVER: tissue Liver; for A/G / ALP / ALT / AST / BUN / CRE / Ca / Cl / DBIL / GLC / IP / K / LDH / Na / PL / RALB / TBIL / TC / TG / TP / gamma-GTP: tissue Plasma
[1] = 300 mg/kg, 72 h, dose level Middle, time 3 day
[2] = 300 mg/kg, […], dose level Middle, time 7 day
[3] = 300 mg/kg, […], dose level Middle, time 14 day
[4] = 300 mg/kg, […], dose level Middle, time 28 day
[5] = 1000 mg/kg, 72 h, dose level High, time 3 day
[6] = 1000 mg/kg, […], dose level High, time 7 day
[7] = 1000 mg/kg, […], dose level High, time 14 day
[8] = 1000 mg/kg, […], dose level High, time 28 day

## COC1=CC(=O)C[C@@H](C)[C@]12Oc1c(Cl)c(OC)cc(OC)c1C2=O [GRISEOFULVIN]
[1]
  TERMINAL_BW: 228.3 g
  APTT: 19.9 s
  Bas: 0%
  Eos: 1%
  Fbg: 220 mg/dL
  Hb: 13.6 g/dL
  Ht: 40.4%
  Lym: 73.2%
  MCH: 20.8 pg
  MCHC: 33.5%
  MCV: 62.1 fL
  Mono: 3%
  Neu: 22.2%
  PT: 12.5 s
  Plat: 118.4 x10_4/uL
  RBC: 651.8 x10_4/ul
  Ret: 6.7%
  WBC: 99.2 x10_2/uL
  KIDNEY_L: 0.9 g
  KIDNEY_R: 1 g
  KIDNEY_TOTAL: 1.9 g
  LIVER: 11.3 g
  A/G: 1.6
  ALP: 836.2 IU/L
  ALT: 44.4 IU/L
  AST: 68.2 IU/L
  BUN: 13.8 mg/dL
  CRE: 0.4 mg/dL
  Ca: 10.8 mg/dL
  Cl: 104.4 meq/L
  DBIL: 0.084 mg/dL
  GLC: 218.2 mg/dL
  IP: 7.6 mg/dL
  K: 3.8 meq/L
  LDH: 160.4 IU/L
  Na: 141.2 meq/L
  PL: 141.6 mg/dL
  RALB: 3.4 g/dL
  TBIL: 0.1 mg/dL
  TC: 80.4 mg/dL
  TG: 69 mg/dL
  TP: 5.6 g/dL
  gamma-GTP: 1.2 IU/L
[2]
  TERMINAL_BW: 261.2 g
  APTT: 19 s
  Bas: 0%
  Eos: 0.6%
  Fbg: 224 mg/dL
  Hb: 13.7 g/dL
  Ht: 40.7%
  Lym: 76.6%
  MCH: 21.2 pg
  MCHC: 33.7%
  MCV: 62.9 fL
  Mono: 3%
  Neu: 18.6%
  PT: 12.3 s
  Plat: 140.6 x10_4/uL
  RBC: 646.8 x10_4/ul
  Ret: 5.7%
  WBC: 118 x10_2/uL
  KIDNEY_L: 1.1 g
  KIDNEY_R: 1.1 g
  KIDNEY_TOTAL: 2.2 g
  LIVER: 12.8 g
  A/G: 1.4
  ALP: 848 IU/L
  ALT: 35.6 IU/L
  AST: 58.4 IU/L
  BUN: 13.4 mg/dL
  CRE: 0.4 mg/dL
  Ca: 10.7 mg/dL
  Cl: 104 meq/L
  DBIL: 0.08 mg/dL
  GLC: 207.6 mg/dL
  IP: 7.5 mg/dL
  K: 3.7 meq/L
  LDH: 136.6 IU/L
  Na: 142.6 meq/L
  PL: 122.8 mg/dL
  RALB: 3.4 g/dL
  TBIL: 0.1 mg/dL
  TC: 70.4 mg/dL
  TG: 60 mg/dL
  TP: 5.8 g/dL
  gamma-GTP: 0.8 IU/L
[3]
  TERMINAL_BW: 309.7 g
  APTT: 19.1 s
  Bas: 0%
  Eos: 1%
  Fbg: 228.6 mg/dL
  Hb: 14.2 g/dL
  Ht: 42.2%
  Lym: 82%
  MCH: 20.9 pg
  MCHC: 33.7%
  MCV: 61.9 fL
  Mono: 2.8%
  Neu: 13.6%
  PT: 12.2 s
  Plat: 115.6 x10_4/uL
  RBC: 682 x10_4/ul
  Ret: 2.8%
  WBC: 104.2 x10_2/uL
  KIDNEY_L: 1.3 g
  KIDNEY_R: 1.3 g
  KIDNEY_TOTAL: 2.6 g
  LIVER: 14.8 g
  A/G: 1.5
  ALP: 784.6 IU/L
  ALT: 32 IU/L
  AST: 51.4 IU/L
  BUN: 14.8 mg/dL
  CRE: 0.6 mg/dL
  Ca: 10.6 mg/dL
  Cl: 102.8 meq/L
  DBIL: 0.078 mg/dL
  GLC: 221.6 mg/dL
  IP: 7.5 mg/dL
  K: 4.3 meq/L
  LDH: 112.2 IU/L
  Na: 140.2 meq/L
  PL: 142.6 mg/dL
  RALB: 3.5 g/dL
  TBIL: 0.1 mg/dL
  TC: 82.2 mg/dL
  TG: 59.6 mg/dL
  TP: 5.9 g/dL
  gamma-GTP: 1 IU/L
[4]
  TERMINAL_BW: 406.6 g
  APTT: 23.1 s
  Bas: 0%
  Eos: 1%
  Fbg: 215.8 mg/dL
  Hb: 15.2 g/dL
  Ht: 44.7%
  Lym: 81%
  MCH: 19.9 pg
  MCHC: 34%
  MCV: 58.8 fL
  Mono: 3.2%
  Neu: 14.4%
  PT: 12.6 s
  Plat: 108.5 x10_4/uL
  RBC: 761 x10_4/ul
  Ret: 2.7%
  WBC: 136.8 x10_2/uL
  KIDNEY_L: 1.4 g
  KIDNEY_R: 1.3 g
  KIDNEY_TOTAL: 2.7 g
  LIVER: 17.3 g
  A/G: 1.3
  ALP: 565.4 IU/L
  ALT: 34.8 IU/L
  AST: 55.2 IU/L
  BUN: 15.6 mg/dL
  CRE: 0.5 mg/dL
  Ca: 10.6 mg/dL
  Cl: 103 meq/L
  DBIL: 0.07 mg/dL
  GLC: 237.6 mg/dL
  IP: 7.3 mg/dL
  K: 3.7 meq/L
  LDH: 159.8 IU/L
  Na: 140.6 meq/L
  PL: 125.8 mg/dL
  RALB: 3.4 g/dL
  TBIL: 0.1 mg/dL
  TC: 70.4 mg/dL
  TG: 83 mg/dL
  TP: 6 g/dL
  gamma-GTP: 1 IU/L
[5]
  TERMINAL_BW: 225 g
  APTT: 21.1 s
  Bas: 0%
  Eos: 1%
  Fbg: 220.8 mg/dL
  Hb: 13.5 g/dL
  Ht: 39.9%
  Lym: 79.2%
  MCH: 21.2 pg
  MCHC: 33.8%
  MCV: 62.6 fL
  Mono: 2.4%
  Neu: 17%
  PT: 12.5 s
  Plat: 122 x10_4/uL
  RBC: 637.2 x10_4/ul
  Ret: 6.9%
  WBC: 108.3 x10_2/uL
  KIDNEY_L: 1 g
  KIDNEY_R: 1 g
  KIDNEY_TOTAL: 2 g
  LIVER: 11.5 g
  A/G: 1.6
  ALP: 1064.4 IU/L
  ALT: 40.6 IU/L
  AST: 63.8 IU/L
  BUN: 13.8 mg/dL
  CRE: 0.4 mg/dL
  Ca: 10.8 mg/dL
  Cl: 103.6 meq/L
  DBIL: 0.074 mg/dL
  GLC: 213.4 mg/dL
  IP: 7.8 mg/dL
  K: 3.8 meq/L
  LDH: 184.2 IU/L
  Na: 140.2 meq/L
  PL: 125.8 mg/dL
  RALB: 3.4 g/dL
  TBIL: 0.1 mg/dL
  TC: 72.6 mg/dL
  TG: 45 mg/dL
  TP: 5.6 g/dL
  gamma-GTP: 1.4 IU/L
[6]
  TERMINAL_BW: 266.7 g
  APTT: 21 s
  Bas: 0%
  Eos: 0.8%
  Fbg: 231.6 mg/dL
  Hb: 13.3 g/dL
  Ht: 38.9%
  Lym: 79.2%
  MCH: 21.5 pg
  MCHC: 34.2%
  MCV: 62.9 fL
  Mono: 3%
  Neu: 16.2%
  PT: 12.4 s
  Plat: 145.2 x10_4/uL
  RBC: 618 x10_4/ul
  Ret: 6.6%
  WBC: 110.8 x10_2/uL
  KIDNEY_L: 1.1 g
  KIDNEY_R: 1.1 g
  KIDNEY_TOTAL: 2.3 g
  LIVER: 13.5 g
  A/G: 1.3
  ALP: 845.8 IU/L
  ALT: 31.6 IU/L
  AST: 56.8 IU/L
  BUN: 15.2 mg/dL
  CRE: 0.4 mg/dL
  Ca: 10.8 mg/dL
  Cl: 103.8 meq/L
  DBIL: 0.064 mg/dL
  GLC: 207 mg/dL
  IP: 7.3 mg/dL
  K: 3.8 meq/L
  LDH: 150.2 IU/L
  Na: 142 meq/L
  PL: 126.8 mg/dL
  RALB: 3.4 g/dL
  TBIL: 0.1 mg/dL
  TC: 76.4 mg/dL
  TG: 45.4 mg/dL
  TP: 5.9 g/dL
  gamma-GTP: 1.2 IU/L
[7]
  TERMINAL_BW: 318.3 g
  APTT: 20.2 s
  Bas: 0%
  Eos: 1%
  Fbg: 229.6 mg/dL
  Hb: 14.2 g/dL
  Ht: 42.1%
  Lym: 79.8%
  MCH: 21 pg
  MCHC: 33.8%
  MCV: 62 fL
  Mono: 3%
  Neu: 15.2%
  PT: 12.6 s
  Plat: 114.7 x10_4/uL
  RBC: 678.4 x10_4/ul
  Ret: 2.8%
  WBC: 112.6 x10_2/uL
  KIDNEY_L: 1.3 g
  KIDNEY_R: 1.3 g
  KIDNEY_TOTAL: 2.6 g
  LIVER: 14.6 g
  A/G: 1.4
  ALP: 803.4 IU/L
  ALT: 32 IU/L
  AST: 56 IU/L
  BUN: 14.6 mg/dL
  CRE: 0.5 mg/dL
  Ca: 10.8 mg/dL
  Cl: 103 meq/L
  DBIL: 0.076 mg/dL
  GLC: 205.2 mg/dL
  IP: 7.4 mg/dL
  K: 4.2 meq/L
  LDH: 135.6 IU/L
  Na: 140.6 meq/L
  PL: 138.6 mg/dL
  RALB: 3.4 g/dL
  TBIL: 0.1 mg/dL
  TC: 81.4 mg/dL
  TG: 55.4 mg/dL
  TP: 5.9 g/dL
  gamma-GTP: 1 IU/L
[8]
  TERMINAL_BW: 423.7 g
  APTT: 24.8 s
  Bas: 0%
  Eos: 1%
  Fbg: 230.8 mg/dL
  Hb: 14.6 g/dL
  Ht: 43.2%
  Lym: 84.4%
  MCH: 20.4 pg
  MCHC: 33.9%
  MCV: 60.1 fL
  Mono: 2.4%
  Neu: 11.4%
  PT: 13 s
  Plat: 113.5 x10_4/uL
  RBC: 718.4 x10_4/ul
  Ret: 3.3%
  WBC: 158.4 x10_2/uL
  KIDNEY_L: 1.6 g
  KIDNEY_R: 1.5 g
  KIDNEY_TOTAL: 3.1 g
  LIVER: 19.4 g
  A/G: 1.3
  ALP: 500.8 IU/L
  ALT: 39.2 IU/L
  AST: 55 IU/L
  BUN: 14.8 mg/dL
  CRE: 0.5 mg/dL
  Ca: 10.5 mg/dL
  Cl: 103 meq/L
  DBIL: 0.062 mg/dL
  GLC: 234.6 mg/dL
  IP: 7.3 mg/dL
  K: 3.7 meq/L
  LDH: 159 IU/L
  Na: 140.6 meq/L
  PL: 138 mg/dL
  RALB: 3.4 g/dL
  TBIL: 0.1 mg/dL
  TC: 88.6 mg/dL
  TG: 38 mg/dL
  TP: 6.2 g/dL
  gamma-GTP: 0.8 IU/L
